Data as given in patent US20240109864A1, “SUBSTITUTED PYRAZOLYL PIPERIDINE CARBOXYLIC ACIDS” (BAYER AKTIENGESELLSCHAFT, priority 2020, published 2024).
Where a name gives a salt, the structure may show the parent alone.

What was measured:
[1] = target: T1, recombinant guanylate cyclase reporter cell line (Rattus norvegicus, UniProt P20595); test: Effect on a recombinant guanylate cyclase reporter cell line; assay type: cell-based; settings: in some cases mean values from individual determinations; for MEC: MEC = minimum effective concentration; for EC50: half maximal effective concentration
T1 construct: expressed in transfected cells
T1 sequence (P20595 1-619): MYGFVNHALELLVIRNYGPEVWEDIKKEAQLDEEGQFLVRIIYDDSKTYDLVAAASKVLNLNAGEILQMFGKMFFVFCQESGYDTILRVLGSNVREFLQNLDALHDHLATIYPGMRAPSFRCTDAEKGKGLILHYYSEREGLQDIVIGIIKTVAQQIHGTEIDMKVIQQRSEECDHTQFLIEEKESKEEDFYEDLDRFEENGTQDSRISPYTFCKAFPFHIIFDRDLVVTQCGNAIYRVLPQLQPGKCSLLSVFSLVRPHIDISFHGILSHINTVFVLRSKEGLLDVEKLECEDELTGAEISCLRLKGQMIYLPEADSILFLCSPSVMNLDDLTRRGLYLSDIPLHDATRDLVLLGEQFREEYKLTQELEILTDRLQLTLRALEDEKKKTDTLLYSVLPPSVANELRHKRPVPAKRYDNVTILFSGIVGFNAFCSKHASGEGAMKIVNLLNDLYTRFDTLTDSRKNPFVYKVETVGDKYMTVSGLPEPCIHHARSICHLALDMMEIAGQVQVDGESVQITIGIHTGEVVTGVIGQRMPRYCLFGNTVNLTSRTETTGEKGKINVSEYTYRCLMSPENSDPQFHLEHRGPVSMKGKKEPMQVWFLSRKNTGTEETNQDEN
T1 sequence (P19686 1-690 partner): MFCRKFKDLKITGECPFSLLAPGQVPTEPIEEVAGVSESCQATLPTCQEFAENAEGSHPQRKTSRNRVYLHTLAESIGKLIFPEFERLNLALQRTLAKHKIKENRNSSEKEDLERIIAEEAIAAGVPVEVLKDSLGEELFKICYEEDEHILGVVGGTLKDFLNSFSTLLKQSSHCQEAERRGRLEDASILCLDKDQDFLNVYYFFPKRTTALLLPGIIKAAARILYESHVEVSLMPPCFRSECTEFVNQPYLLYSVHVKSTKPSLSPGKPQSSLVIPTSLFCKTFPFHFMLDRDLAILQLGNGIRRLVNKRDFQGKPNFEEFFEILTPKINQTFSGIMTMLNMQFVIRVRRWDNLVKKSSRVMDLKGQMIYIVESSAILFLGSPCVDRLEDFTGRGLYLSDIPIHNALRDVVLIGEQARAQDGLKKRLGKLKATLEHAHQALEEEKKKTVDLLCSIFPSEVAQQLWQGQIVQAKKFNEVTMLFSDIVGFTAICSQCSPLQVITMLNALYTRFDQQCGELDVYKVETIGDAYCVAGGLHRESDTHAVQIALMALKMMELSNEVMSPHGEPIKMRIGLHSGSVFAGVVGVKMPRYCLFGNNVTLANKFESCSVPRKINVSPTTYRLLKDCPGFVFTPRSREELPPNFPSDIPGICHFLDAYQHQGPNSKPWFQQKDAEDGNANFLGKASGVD
Experimental: The cellular activity of the compounds according to the invention was determined using a recombinant guanylate cyclase reporter cell line, as described in F. Wunder et al., Anal. Biochem. 339, 104-112 (2005).

[2] = Pharmacokinetic parameters following intravenous administration in rats; assay type: in vivo
Experimental: (§1) The pharmacokinetic parameters of the compounds according to the invention were determined in male Wistar rats and/or in female beagles and/or in cynomolgus monkeys and/or in male CD-1 mice. Intravenous administration in the case of mice and rats was carried out by means of a species-specific plasma/DMSO formulation, and in the case of dogs and monkeys by means of a water/PEG400/ethanol formulation. In all species, oral administration of the dissolved substance was performed via gavage, based on a water/PEG400/ethanol formulation.
An internal standard (which may also be a chemically unrelated substance) was added to the samples of the compounds of the invention, calibration samples and qualifiers, and there followed protein precipitation by means of acetonitrile in excess. […] The supernatant was analysed by LC-MS/MS using C18 reversed-phase columns and variable mobile phase mixtures. The substances were quantified via the peak heights or areas from extracted ion chromatograms of specific selected ion monitoring experiments.
The plasma concentration/time plots determined were used to calculate the pharmacokinetic parameters such as AUC, Cmax, t1/2 (terminal half-life), F (bioavailability), MRT (mean residence time) and CL (clearance), by means of a validated pharmacokinetic calculation program. […]

[3] = Pharmacokinetic parameters following oral administration in rats; assay type: in vivo
Experimental: as §1
An internal standard (which may also be a chemically unrelated substance) was added to the samples of the compounds of the invention, calibration samples and qualifiers, and there followed protein precipitation by means of acetonitrile in excess. Addition of a buffer solution matched to the LC conditions, and subsequent vortexing, was followed by centrifugation at 1000 g. The supernatant was analysed by LC-MS/MS using C18 reversed-phase columns and variable mobile phase mixtures. The substances were quantified via the peak heights or areas from extracted ion chromatograms of specific selected ion monitoring experiments.
The plasma concentration/time plots determined were used to calculate the pharmacokinetic parameters such as AUC, Cmax, t1/2 (terminal half-life), F (bioavailability), MRT (mean residence time) and CL (clearance), by means of a validated pharmacokinetic calculation program.
Since the substance quantification was performed in plasma, it was necessary to determine the blood/plasma distribution of the substance in order to be able to adjust the pharmacokinetic parameters correspondingly. For this purpose, a defined amount of substance was incubated in K3 EDTA whole blood of the species in question in a rocking roller mixer for 20 min. After centrifugation at 1000 g, the plasma concentration was measured (by means of LC-MS/MS; see above) and determined by calculating the ratio of the Cblood/Cplasma value.

Structure (SMILES) | MEC [1] [nM] | EC50 [1] [nM] | also measured
O=C(O)c1cnn(C2CCCN(c3cc(Cl)ccc3-c3ccc(N4CCN(CCOC(F)(F)F)CC4)cc3)C2)c1C(F)(F)F (single isomer, unassigned) [Example 35, 1-[1-[5-Chloro-2-[4-[4-[2-(trifluoromethoxy)ethyl]piperazin-1-yl]phenyl]phenyl]-3-piperidyl]-5-(trifluoromethyl)pyrazole-4-carboxylic acid hydrochloride] | 3.0 | 17.5 | 
O=C(O)c1cnn(C2CCCN(c3cc(Cl)ccc3-c3ccc(N4CCN(CC5CC5F)CC4)cc3)C2)c1C(F)(F)F (single isomer, unassigned) [Example 25, 1-[1-[5-Chloro-2-[4-[4-[[2-fluorocyclopropyl]methyl]piperazin-1-yl]phenyl]phenyl]-3-piperidyl]-5-(trifluoromethyl)pyrazole-4-carboxylic acid hydrochloride] |  | 22 | MEC ([1]; hydrochloride): 10.0 nM
O=C(O)c1cnn(C2CCCN(c3cc(Cl)ccc3-c3ccc(N4CCN(C(=O)C5CC5F)CC4)cc3)C2)c1C(F)(F)F (single isomer, unassigned) [Example 44, 1-[1-[5-Chloro-2-[4-[4-(2-fluorocyclopropanecarbonyl)piperazin-1-yl]phenyl]phenyl]-3-piperidyl]-5-(trifluoromethyl)pyrazole-4-carboxylic acid] | 10.0 | 34.5 | 
CCN1CCN(c2ccc(-c3ccc(Cl)cc3N3CCCC(n4ncc(C(=O)O)c4C(F)(F)F)C3)cc2)CC1 (single isomer, unassigned) [Example 3, 1-{1-[4-Chloro-4′-(4-ethylpiperazin-1-yl)[1,1′-biphenyl]-2-yl]piperidin-3-yl}-5-(trifluoromethyl)-1H-pyrazole-4-carboxylic acid hydrochloride] | 10.0 | 66.5 | 
CCOC(=O)N1CCN(c2ccc(-c3ccc(Cl)cc3N3CCCC(n4ncc(C(=O)O)c4C(F)(F)F)C3)cc2)CC1 (single isomer, unassigned) [Example 55, 1-[1-[5-Chloro-2-[4-(4-ethoxycarbonylpiperazin-1-yl)phenyl]phenyl]-3-piperidyl]-5-(trifluoromethyl)pyrazole-4-carboxylic acid] | 3.0 | 10.4 | 
O=C(O)c1cnn(C2CCCN(c3cc(Cl)ccc3-c3ccc(N4CCN(C[C@@H]5C[C@@H]5F)CC4)cc3)C2)c1C(F)(F)F (single isomer, unassigned) [Example 8, hydrochloride] |  | 53 | MEC ([1]; hydrochloride): 10.0 nM
CN1CCN(c2ccc(-c3ccc(Cl)cc3N3CCCC(n4ncc(C(=O)O)c4C(F)(F)F)C3)cc2)CC1 (single isomer, unassigned) [Example 2, 1-{1-[4-Chloro-4′-(4-methylpiperazin-1-yl)[1,1′-biphenyl]-2-yl]piperidin-3-yl}-5-(trifluoromethyl)-1H-pyrazole-4-carboxylic acid hydrochloride] |  | 28.8 | MEC ([1]; hydrochloride): 5.5 nM
O=C(O)c1cnn(C2CCCN(c3cc(Cl)ccc3-c3ccc(N4CCN(CC5CC5)CC4)cc3)C2)c1C(F)(F)F (single isomer, unassigned) [Example 7, 1-[1-[5-Chloro-2-[4-[4-(cyclopropylmethyl)piperazin-1-yl]phenyl]phenyl]-3-piperidyl]-5-(trifluoromethyl)pyrazole-4-carboxylic acid hydrochloride] | 2.0 |  | AUCnorm [2]: 1.37 kg·h/L; bioavailability in comparison to prior art (WO 2012/058132) ([3]; after oral (p.o.) application): lower bioavailability; AUCnorm ([3]; oral administration in rats): 0.52 kg·h/L; F ([3]; oral administration in rats, F = bioavailability): 37.4%

The next lines start with results.

MEC [1] [nM] | EC50 [1] [nM] | Structure (SMILES) | also measured
10.0 | 56.5 | CNC(=O)N1CCN(c2ccc(-c3ccc(Cl)cc3N3CCCC(n4ncc(C(=O)O)c4C(F)(F)F)C3)cc2)CC1 (single isomer, unassigned) [Example 65, 1-[1-[5-Chloro-2-[4-[4-(methylcarbamoyl)piperazin-1-yl]phenyl]phenyl]-3-piperidyl]-5-(trifluoromethyl)pyrazole-4-carboxylic acid] | 
30.0 | 99 | CCN1CCN(c2ccc(-c3ccc(Cl)cc3N3CCCC(n4ncc(C(=O)O)c4C(F)(F)F)C3)cc2F)CC1 (single isomer, unassigned) [Example 70, 1-[1-[5-Chloro-2-[4-(4-ethylpiperazin-1-yl)-3-fluoro-phenyl]phenyl]-3-piperidyl]-5-(trifluoromethyl)pyrazole-4-carboxylic acid] | 
30.0 | 45 | CS(=O)(=O)N1CCN(c2ccc(-c3ccc(Cl)cc3N3CCCC(n4ncc(C(=O)O)c4C(F)(F)F)C3)cc2)CC1 (single isomer, unassigned) [Example 67, 1-[1-[5-Chloro-2-[4-(4-methylsulfonylpiperazin-1-yl)phenyl]phenyl]-3-piperidyl]-5-(trifluoromethyl)pyrazole-4-carboxylic acid hydrochloride] | 
30.0 | 43 | CC(C)CN1CCc2cc(-c3ccc(Cl)cc3N3CCCC(n4ncc(C(=O)O)c4C(F)(F)F)C3)ccc2C1 (single isomer, unassigned) [Example 81, 1-[1-[5-Chloro-2-(2-isobutyl-3,4-dihydro-1H-isoquinolin-6-yl)phenyl]-3-piperidyl]-5-(trifluoromethyl)pyrazole-4-carboxylic acid hydrochloride] | 
3.0 | 16 | O=C(O)c1cnn(C2CCCN(c3cc(Cl)ccc3-c3ccc(N4CCN(CC(F)(F)F)CC4)nc3)C2)c1C(F)(F)F (single isomer, unassigned) [Example 75, 1-[1-[5-Chloro-2-[6-[4-(2,2,2-trifluoroethyl)piperazin-1-yl]-3-pyridyl]phenyl]-3-piperidyl]-5-(trifluoromethyl)pyrazole-4-carboxylic acid] | 
